Test results reported in US20070099276A1, “Retrovirus-like particles and retroviral vaccines” (priority 2003, published 2007).

Molecular target: HIV protease (Human immunodeficiency virus type 1 group M subtype B, UniProt P12497)
Type: cell-based, HIV-1
Description: Retrovirus-like particles and virions were isolated by centrifugation through a 20% sucrose pad in a SW28.1Ti rotor (Beckman-Coulter, Inc., Fullerton, Calif.) at 120,000 g at 4° C. for 1 hour. Immunoblot analyses of retrovirus-like particles and virion preparations (the equivalent of 10% of the transfection supernatant) were performed as previously described, using peroxidase-conjugated secondary antibodies and developed with the Enhanced ChemiLuminescence reagent (Amersham Life Science, Arlington Heights, Ill.). Rabbit antiserum against p6Gag (DJ-30552) and goat antiserum against, p7NC (#77), p17MA (#83), or p24CA (#81) were obtained from the AIDS Vaccine Program. Monoclonal antibody against reverse transcriptase was obtained from Perkin Elmer/NEN Life Science. N-terminal protein sequence analysis was carried out on an Applied Biosystems Procise model 494 microsequencer (Foster City, Calif.) as previously described (Chertova et al., J. Virol., 76:5315 (2002)). Micro-scale high-pressure liquid chromatography (HPLC) was performed as previously described (Chertova et al., J. Virol. 76:5315 (2002)). Matrix-assisted laser desorption/ionization-time-of-flight (MALDI) mass spectrometry was carried out as previously described (Ott et al., J. Virol., 73:19 (1999)) using a Kratos Kompact Probe (Kratos Analytical Inc., Chestnut Ridge, N.Y.).
To examine protease activity and mutant budding in another way, 293T cells were transfected with pNL4-3 or DelNC and then treated without or with 10 nM of the protease inhibitor Saquinavir for 24 hours.

In the case of `CC(C)(C)NC(=O)[C@@H]1C[C@@H]2CCCC[C@@H]2CN1C[C@@H](O)[C@H](Cc1ccccc1)NC(=O)[C@H](CC(N)=O)NC(=O)c1ccc2ccccc2n1` [Saquinavir], the “effect on DelNC Gag processing” value is reported as “essentially eliminated”, the “effect on amount of pNL4-3 virions in the medium” value is reported as “not largely increased” and the “effect on cleavage of NL4-3 Gag” value is reported as “only a slight reduction”. For the same compound, the “effect on production of DelNC retrovirus-like particles” value was “increased”.
